One compound from article PMC7340540, “Crystal structures and calorimetry reveal catalytically relevant binding mode of coproporphyrin and coproheme in coproporphyrin ferrochelatase” (The FEBS journal, 2019) can be followed below.

The target in the test is T1, LmCpfC (Listeria monocytogenes, UniProt Q8Y565).
T1 construct: gene cpfC; full length in pET21a(+) (BamHI/XhoI), C-terminal 6xHis-tag kept, vector N-terminal residues; E. coli BL21 Gold; 37 kDa theoretical, 38 kDa by MALS; monomer
T1 sequence (Q8Y565 1-309): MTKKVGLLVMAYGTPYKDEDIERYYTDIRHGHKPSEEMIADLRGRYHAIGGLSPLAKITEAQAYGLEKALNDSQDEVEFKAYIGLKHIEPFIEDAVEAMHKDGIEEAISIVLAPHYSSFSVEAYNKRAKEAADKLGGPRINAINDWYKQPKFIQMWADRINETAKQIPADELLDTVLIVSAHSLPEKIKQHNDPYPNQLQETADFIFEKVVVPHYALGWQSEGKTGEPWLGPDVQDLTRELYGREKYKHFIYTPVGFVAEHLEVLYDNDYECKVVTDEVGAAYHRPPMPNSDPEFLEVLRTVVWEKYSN
Nature of the test: stopped-flow UV-vis, […] nm, KD = koff/kon. The format is binding.

Each structure is given as a SMILES string.

As a reminder, the Kd is the equilibrium constant for the complex coming apart. Higher therefore signals weaker binding. Turning to `CC1=C(CCC(=O)O)c2cc3nc(cc4[nH]c(cc5[nH]c(cc1n2)c(C)c5CCC(=O)O)c(CCC(=O)O)c4C)C(CCC(=O)O)=C3C` [coproporphyrin III], binding was characterised by a dissociation constant (Kd) of 2 µM. In other words, the single-digit micromolar range.
